The record followed here is ChEMBL document CHEMBL4371081, “The role of N-terminal heterocycles in hydrogen bonding to α-chymotrypsin” (Bioorg Med Chem Lett, 2019).

Activity calls are given as the source filed them. No cut-off for these calls is given here. Where a SMILES comes first, the peptide text is derived from it. [ ]: non-standard residue; d: D form. The star is where a group is joined. ξ: configuration not given here. Phe(ol) = N[C@H](CO)Cc1ccccc1; ξF = NC(Cc1ccccc1)C(=O)O; Boc = CC(C)(C)OC(=O)*

System in one experiment: not listed separately
The experiment is described as follows: Inhibition of alpha-chymotrypsin (unknown origin) using Ala-Ala-Phe-7-AMC as substrate measured over 10 mins by spectrophotometric method. More on the design: species or system Homo sapiens.
A word on the IC50: it is the concentration at which inhibition is half-maximal. Consider `COC(=O)c1ccc(C(=O)N[C@@H](CC(C)C)C(=O)NC(C=O)Cc2ccccc2)s1` (mixture of isomers), for which half-maximal inhibition (IC50) required 40 µM. `CC(C)C[C@H](NC(=O)[C@H](C)NC(=O)OC(C)(C)C)C(=O)NC(C=O)Cc1ccccc1` (stereo partly drawn) (Boc-Ala-Leu-[ξF]-aldehyde): 1.4 µM corresponded to half-maximal inhibition (IC50).

`COC(=O)c1ccc(C(=O)N[C@@H](CC(C)C)C(=O)NC(C=O)Cc2ccccc2)o1` (mixture of isomers) returned an IC50 of 36 µM. This IC50 is about 26-fold higher than that of the compound before.

In the case of `COC(=O)c1cccc(C(=O)N[C@@H](CC(C)C)C(=O)NC(C=O)Cc2ccccc2)n1` (stereo partly specified), inhibition was half-maximal at 35 µM (IC50).

`COC(=O)c1ccc(C(=O)N[C@@H](CC(C)C)C(=O)NC(C=O)Cc2ccccc2)[nH]1` (mixture of isomers) registered an IC50 of 1.1 µM.

The species named for a further experiment is Homo sapiens. The experiment is described as follows: Inhibition of alpha-chymotrypsin (unknown origin) at 500 uM using Ala-Ala-Phe-7-AMC as substrate measured over 10 mins by spectrophotometric method.
Turning to `COC(=O)c1ccc(C(=O)N[C@@H](CC(C)C)C(=O)N[C@H](CO)Cc2ccccc2)[nH]1`, the inhibition entry was “inactive”. For `COC(=O)c1ccc(C(=O)N[C@@H](CC(C)C)C(=O)N[C@H](CO)Cc2ccccc2)s1`, the inhibition result was “inactive”. With `COC(=O)c1cccc(C(=O)N[C@@H](CC(C)C)C(=O)N[C@H](CO)Cc2ccccc2)n1`, the inhibition result was “inactive”.

`COC(=O)c1ccc(C(=O)N[C@@H](CC(C)C)C(=O)N[C@H](CO)Cc2ccccc2)o1`: the inhibition entry was “inactive”. `CCOC(=O)c1ccc(C(=O)N[C@@H](CC(C)C)C(=O)N[C@H](CO)Cc2ccccc2)o1`: the inhibition entry was “inactive”. Same read-out and setting: the entry for `CC(C)C[C@H](NC(=O)[C@H](C)NC(=O)OC(C)(C)C)C(=O)N[C@H](CO)Cc1ccccc1` (Boc-Ala-Leu-[Phe(ol)]) is “inactive”.
